Counter-ions that a name gives are not always drawn. Like-named read-outs stand apart in the source and are kept apart here.
How the values were obtained:
Type in all cases: in vivo
[1] = tested on: Nilaparvata lugens; assay: Insecticidal Test on Nilaparvata lugens; details: 144 h
Description: 10% emulsifiable concentrates (or 10% wettable powders) of compounds of the present invention were diluted with water containing a spreader to obtain 500 ppm solutions. Rice sheaths were soaked in the solutions for about 10 seconds, dried in air and put in test tubes. In each tube, five 2nd-instar nymphs of Nilaparvata lugens were released, and the tubes were capped with sponge and placed in an incubator at 25° C. 6 Days after, dead insects were counted, and the mortality (%) (the number of dead insects÷the number of released insects×100) was calculated. The test was carried out in duplicate.

[2] = tested on: Myzus persicae; assay: Insecticidal Test on Myzus persicae; details: foliar, 144 h
Description: (§1) Wet absorbent cotton was laid on glass dishes having an inner diameter of 3 cm, and covered with leaves of Canarium album cut into circles of the same diameter, and 4 apterous adults of Myzus persicae were released. After a day, 10% emulsifiable concentrates (or 10% wettable powders) of compounds of the present invention were diluted with water containing a spreader to obtain 500 ppm solutions, and the solution were sprayed from a rotary spray tower (2.5 mg/cm^2). The dishes were covered with lids and placed in an incubator at 25° C. 6 Days after, dead insects were counted, and the mortality was calculated by using the same equation as in Test Example 1. The test was carried out in duplicate.

[3] = tested on: Myzus persicae; assay: Soil Irrigation Test on Myzus persicae; details: 144 h, 100 ppm solution, 10 ml soil irrigation of cabbage seedlings, greenhouse, 6 days after release of insects
Description: 10% emulsifiable concentrates of compounds of the present invention were diluted with tap water to obtain 100 ppm solutions. The soil around the bases of cabbage seedlings (at the 2.5 true leaf stage) planted in plastic cups was irrigated with 10 ml of the solutions, and the cups were placed in a greenhouse. One day after the irrigation, adults of Myzus persicae were released at a ratio of 20 insects per seedling, and the seedlings were incubated in the greenhouse. 6 Days after the release of the insects, living insects were counted, and the control value was calculated from the following equation.
Control value (%)={1−(Cb×Tai)/(Cai×Tb)}×100
Cb: the number of insects in a non-treated area before treatment
Cai: the final number of living insects in a non-treated area
Tb: the number of insects in a treated area before treatment
Tai: the final number of living insects in a treated area

[4] = tested on: Bemisia argentifolii; assay: Insecticidal Test on Bemisia argentifolii; details: 120 h
Description: In styrol cups having an inner diameter of 7 cm, wet filter paper was laid, and kidney bean leaves cut to 3 cm were laid on the paper. 10% emulsifiable concentrates (or 10% wettable powders) of compounds of the present invention were diluted with water containing a spreader to obtain 500 ppm solutions. 2.5 ml of the solutions were sprayed from a rotary spray tower into the styrol cups (2.5 mg/cm^2). The leaves were dried in air, and adults of Bemisia argentifolii were released in the cups. The cups were closed and placed in an incubator at 25° C. 5 Days after, dead insects were counted, and the mortality was calculated by using the same equation as in Test Example 1. The test was carried out in duplicate.

[5] = tested on: Aphis gossypii; assay: Insecticidal Test on Aphis gossypii; details: foliar, 144 h
Description: as §1, with “cucumber” for “Canarium album”, “Aphis gossypii” for “Myzus persicae”

[6] = 500 ppm solution, rice sheaths soaked, 2nd-instar nymphs, 25° C., 6 days after, read-out: mortality (%)
[7] = 500 ppm solution sprayed, apterous adults on leaf discs, 25° C., 6 days after, read-out: mortality
[8] = 500 ppm solution sprayed on kidney bean leaves, adults, 25° C., 5 days after, read-out: mortality
[9] = 500 ppm solution sprayed, apterous adults on cucumber leaf discs, 25° C., 6 days after, read-out: mortality

Row | SMILES | mortality at 500 ppm [1, 6] | mortality at 500 ppm [2, 7] | also measured
1 | CSCCNc1cn(-c2cccnc2)nc1Cl [C-002, 3-chloro-N-{2-(methylthio)ethyl}-1-(pyridin-3-yl)-1H-pyrazole-4-amine] | ≥ 90% | ≥ 90% | 
2 | CN(C(=O)OC(C)(C)C)c1cnn(C(C)(C)C)c1Cl [G-002, tert-butyl 1-tert-butyl-5-chloro-1H-pyrazol-4-yl(methyl)carbamate] |  |  | mortality at 500 ppm [2]: ≥ 90%
3 | CCN(C(=O)C(CSC)OC)c1cn(-c2cccnc2)nc1Cl (stereo not drawn) [1-160, N-{3-chloro-1-(pyridin-3-yl)-1H-pyrazol-4-yl}-N-ethyl-2-methoxy-3-(methylthio)propanamide] |  |  | pest or weed control at 100 ppm [3]: ≥ 90%
4 | O=C(CCCCl)Nc1cn(-c2cccnc2)nc1Cl [1-131, 4-chloro-N-{3-chloro-1-(pyridin-3-yl)-1H-pyrazol-4-yl}butanamide] | ≥ 90% |  | 
5 | CC(C)(C)OC(=O)Nc1cn(-c2cccnc2)nc1Cl [1-046, tert-butyl 3-chloro-1-(pyridin-3-yl)-1H-pyrazol-4-ylcarbamate] |  |  | mortality at 500 ppm [4, 8]: ≥ 90%
6 | Cc1nn(-c2cccnc2)cc1N [B-009, 3-methyl-1-(pyridin-3-yl)-1H-pyrazole-4-amine] | ≥ 90% |  | 
7 | C#CCNc1cn(-c2cccnc2)nc1Cl [B-008, 3-chloro-N-(prop-2-ynyl)-1-(pyridin-3-yl)-1H-pyrazole-4-amine] | ≥ 90% | ≥ 90% | mortality at 500 ppm [5, 9]: ≥ 90%
8 | CN(C(=O)OC(C)(C)C)c1cn(-c2cccnc2)nc1Cl [1-037, tert-butyl 3-chloro-1-(pyridin-3-yl)-1H-pyrazol-4-yl(methyl)carbamate] |  |  | mortality at 500 ppm [4]: ≥ 90%
9 | CN(C1=NCCS1)c1cn(-c2cccnc2)nc1Cl [3-001, N-{3-chloro-1-(pyridin-3-yl)-1H-pyrazol-4-yl}-N-methyl-4,5-dihydrothiazole-2-amine] |  |  | mortality at 500 ppm [4, 8]: ≥ 90%
10 | CSCCC(=O)N(C)c1cn(-c2cccnc2)nc1Cl [1-038, N-{3-chloro-1-(pyridin-3-yl)-1H-pyrazol-4-yl}-N-methyl-3-(methylthio)propanamide] |  |  | pest or weed control at 100 ppm [3]: ≥ 90%
11 | Cc1c(NC(=O)OC(C)(C)C)cnn1-c1cccnc1 [5-001, tert-butyl 5-methyl-1-(pyridin-3-yl)-1H-pyrazol-4-ylcarbamate] |  |  | mortality at 500 ppm [5, 9]: ≥ 90%
12 | CCCNc1cn(-c2cccnc2)nc1Cl [B-006, 3-chloro-N-n-propyl-1-(pyridin-3-yl)-1H-pyrazole-4-amine] | ≥ 90% | ≥ 90% | mortality at 500 ppm [5, 9]: ≥ 90%
13 | O=C1CCCN1c1cn(-c2cccnc2)nc1Cl [1-132, 1-{3-chloro-1-(pyridin-3-yl)-1H-pyrazol-4-yl}pyrrolidin-2-one] |  | ≥ 90% | 
14 | C=C1CCN(c2cn(-c3cccnc3)nc2Cl)C1=O [1-133, 1-{3-chloro-1-(pyridin-3-yl)-1H-pyrazol-4-yl}-3-methylenepyrrolidin-2-one] |  | ≥ 90% | 
15 | C=CC(=O)N(CC)c1cn(-c2cccnc2)nc1Cl [1-152, N-{3-chloro-1-(pyridin-3-yl)-1H-pyrazol-4-yl}-N-ethylacrylamide] |  |  | mortality at 500 ppm [4, 8]: ≥ 90%
16 | CCSC(C)C(=O)N(CC)c1cnn(C(C)(C)C)c1Cl (stereo not drawn) [1-001, N-(1-tert-butyl-5-chloro-1H-pyrazol-4-yl)-N-ethyl-2-(ethylthio)propanamide] |  | ≥ 90% | mortality at 500 ppm [5, 9]: ≥ 90%
17 | CSC1CCCN(c2cnn(-c3cccnc3)c2)C1=O (stereo not drawn) [1-028, 3-(methylthio)-1-{1-(pyridin-3-yl)-1H-pyrazol-4-yl}piperidin-2-one] | ≥ 90% | ≥ 90% | mortality at 500 ppm [4, 8]: ≥ 90%; mortality at 500 ppm [5, 9]: ≥ 90%
18 | CCNc1cnn(C(C)(C)C)c1Cl [H-001, 1-tert-butyl-5-chloro-N-ethyl-1H-pyrazole-4-amine hydrochloride] |  | ≥ 90% | 

Row | SMILES | mortality at 500 ppm [1, 6] | mortality at 500 ppm [2, 7] | also measured
19 | CNc1cn(-c2cccnc2)nc1Cl [A-003, 3-chloro-N-methyl-1-(pyridin-3-yl)-1H-pyrazole-4-amine dihydrochloride] |  | ≥ 90% | 
20 | CCSC(C)C(=NOC)Nc1cn(-c2cccnc2)nc1Cl (stereo not drawn) [1-356, N-{3-chloro-1-(pyridin-3-yl)-1H-pyrazol-4-yl}-2-(ethylthio)-N′-methoxypropanimidamide] | ≥ 90% |  | mortality at 500 ppm [4, 8]: ≥ 90%
21 | Cc1nn(-c2cccnc2)cc1N [A-009, 3-methyl-1-(pyridin-3-yl)-1H-pyrazole-4-amine dihydrochloride] |  | ≥ 90% | mortality at 500 ppm [5, 9]: ≥ 90%
22 | CSCCCNc1cn(-c2cccnc2)nc1Cl [C-001, 3-chloro-N-{3-(methylthio)propyl}-1-(pyridin-3-yl)-1H-pyrazole-4-amine] | ≥ 90% | ≥ 90% | 
23 | FC(F)(F)CNc1cn(-c2cccnc2)nc1Cl [B-012, 3-chloro-1-(pyridin-3-yl)-N-(2,2,2-trifluoroethyl)-1H-pyrazole-4-amine] | ≥ 90% |  | 
24 | Nc1cn(-c2cccnc2)nc1Cl [B-021, 3-chloro-1-(pyridin-3-yl)-1H-pyrazole-4-amine] | ≥ 90% |  | 
25 | CCNc1cn(-c2cccnc2)nc1C(F)(F)F [B-018, N-ethyl-1-(pyridin-3-yl)-3-(trifluoromethyl)-1H-pyrazole-4-amine] | ≥ 90% | ≥ 90% | 
26 | CSCCC(=O)N(C)c1cn(-c2cccnc2)nc1C [1-018, N-methyl-N-{3-methyl-1-(pyridin-3-yl)-1H-pyrazol-4-yl}-3-(methylthio)propanamide] | ≥ 90% | ≥ 90% | 
27 | CNc1cn(-c2cccnc2)nc1C [A-001, N,3-dimethyl-1-(pyridin-3-yl)-1H-pyrazole-4-amine dihydrochloride] |  |  | mortality at 500 ppm [5, 9]: ≥ 90%
28 | CCSC(C)C(=O)N(CC)c1c[nH]nc1Cl (stereo not drawn) [J-001, N-(3-chloro-1H-pyrazol-4-yl)-N-ethyl-2-(ethylthio)propanamide] |  | ≥ 90% | 
29 | Cc1nn(-c2cccnc2)cc1N(C)C(=O)OC(C)(C)C [1-012, tert-butyl methyl{3-methyl-1-(pyridin-3-yl)-1H-pyrazol-4-yl}carbamate] |  |  | mortality at 500 ppm [4]: ≥ 90%; mortality at 500 ppm ([1]; in Oryza sativa): ≥ 90%; mortality at 500 ppm [2]: ≥ 90%
30 | O=C1C(Br)CCCN1c1cnn(-c2cccnc2)c1 (stereo not drawn) [1-027, 3-bromo-1-{1-(pyridin-3-yl)-1H-pyrazol-4-yl}piperidin-2-one] |  | ≥ 90% | 
31 | CC(C)(C)OC(=O)Nc1cnn(C(C)(C)C)c1Cl [F-001, tert-butyl 1-tert-butyl-5-chloro-1H-pyrazol-4-ylcarbamate] | ≥ 90% |  | 
32 | CCNc1cn(-c2cccnc2)nc1Cl [A-004, 3-chloro-N-ethyl-1-(pyridin-3-yl)-1H-pyrazole-4-amine dihydrochloride] |  | ≥ 90% | 
33 | CC(C)(C)OC(=O)Nc1cn(-c2cccnc2)nc1Br [1-188, tert-butyl 3-bromo-1-(pyridin-3-yl)-1H-pyrazol-4-ylcarbamate] | ≥ 90% |  | mortality at 500 ppm [4, 8]: ≥ 90%
34 | CSCCCN(C(C)=O)c1cn(-c2cccnc2)nc1Cl [1-153, N-{3-chloro-1-(pyridin-3-yl)-1H-pyrazol-4-yl}-N-{3-(methylthio)propyl}acetamide] |  |  | mortality at 500 ppm [4, 8]: ≥ 90%; mortality at 500 ppm [5, 9]: ≥ 90%
35 | CCN(C(=O)OC(C)(C)C)c1cn(-c2cccnc2)nc1Cl [1-056, tert-butyl 3-chloro-1-(pyridin-3-yl)-1H-pyrazol-4-yl(ethyl)carbamate] |  |  | mortality at 500 ppm [4]: ≥ 90%; mortality at 500 ppm [5]: ≥ 90%
